{"source": "patent US20030134859A1", "about": "(SANKYO COMPANY, LIMITED, priority 2000, published 2003)", "key": {"[1]": {"test_system": "leptin production", "assay": "Enhancing activity for leptin production in adipocytes (ELISA)", "type": "cell-based, rat", "conditions": "Rattus norvegicus, Adipocyte, 24 h, leptin concentration as % of control group, read-out: Facilitating activity to produce leptin; for activity at 0.1 µM: 100 nm; for activity at 0.01 µM: 10 nm", "description": "Hanks solution was used for collection of adipose tissue. The Hanks solution was prepared by filtration of a mixed solution (pH: 7.5) of 120 mM NaCl, 4.8 mM KCl, 0.74 mM MgSO4, 0.30 mM Na2HPO4, 0.40 mM KH2PO4, 20 mM HEPES, 0.05% (w/v) glucose, 2% (w/v) BSA (Sigma-Aldrich Japan K. K., Cat. No. A7888), 0.95 mM CaCl2, 4.17 mM NaHCO3 and 1% (v/v) penicillin-streptomycin liquid (GIBCO BRL, Cat. No. 15140-122). The adipocytes were cultured in Dulbecco's modified Eagle's medium (GIBCO BRL, Cat. No. 11995-040) mixed with DMEM/F-12 (GIBCO BRL, Cat. No. 11320-033) at a ratio of 1:1, and added 0.2% (v/v) Hanks solution, 0.2 μg/L sodium selenite (GIBCO BRL, Cat. No. 13012-018), 0.002% (v/v) ethanolamine, 25 mM HEPES and 1% (v/v) penicillin-streptomycin liquid (GIBCO BRL, Cat. No. 15140-122). As many as possible of the other reagents used were special grade. In this experiment, the cells were cultured in a CO2 incubator (37° C., 95% humidity, 5% CO2).\nMale Wistar Imamichi rats of 6 weeks old were sacrificed by bleeding following decapitation, and adipose tissue was removed from the epididymis and sectioned after the vessels were removed in warmed Hanks solution at 37° C. and were weighed. One (1) mL of Hanks solution containing 10 mg collagenase (Wako Pure Chemical Industries, Ltd., 034-10533) was added to the adipose tissue prepared. The solution was transferred into a tube having a volume of 50 mL, and the cells were evenly dispersed by incubation under gentle shaking at 37° C., 90 rpm, for 50 min. Then 20 mL of Hanks solution were added and filtrated through Nylon-mesh with a mesh diameter of 200 μm for removal of undigested tissue pieces. The floating adipocytes were separated from sediments and substances located in the lower layer by centrifugation at 1,000 rpm for 1 min at room temperature. The sediment and 22 mL of the low layer were pulled out with a probe, and the floating adipocytes were recovered. This procedure was repeated twice with Hanks solution and for 4 times with the culture medium. After these procedures the adipocytes were suspended in the culture medium at a volume of 60 mL per 1 g of the adipose tissue weighed previously. 100 μL of the suspended solution were plated in each well of a 96-well microplate (ASAHI TECHNO GLASS Corp.) In the group treated with the test compound, 1 μL/well of DMSO solution containing the dissolved the test compound at concentrations of 200 μM, 20 μM, 2 μM and 0.2 μM (final concentrations of the test compound: 1 μM, 100 nM, 10 nM and 1 nM, respectively) was plated in each of the well. In the control group, 1 μL/well of DMSO (final concentration: 0.1% (v/v)) was plated in each well. The plate was placed stationary in a CO2 incubator for 1 hr or longer, and the contents in the solution were equilibrated at 37° C. After they were equilibrated, the solution in each well was stirred with a magnetic stirrer in a water bath and the suspended solution maintained at 37° C. was plated into each well of the plate at 100 μL/well. After incubation of the cells for 24 hr, the suspended solution of cells was filtrated through a filter for the microplate, MultiScreen (MILLOPORE, MDV-N65). The concentration of leptin in the filtrated solution was determined with ELISA methods by using a Rat Leptin Determination Kit-IBL (Immuno-Biological Laboratories Co., Ltd., Cat. No. 17195). The facilitating activity of the compound to produce leptin was calculated from the following equation based on the concentration of leptin determined.\nFacilitating Activity of the Compound to Produce Leptin (%)=(A/B)×100\nA: Concentration of Leptin in the Treated Group with the Test Compound.\nB: Concentration of Leptin in the Control Group."}, "[2]": {"test_system": "Rat white adipocytes", "assay": "Inhibition of the differentiation of adipocytes (Oil Red O)", "type": "cell-based", "conditions": "Rattus norvegicus, Adipocyte, 120 h, 100 nM test compound; 5 days; Oil Red O ABS550; control = 100%, blank = 0%; Table 3; read-out: Rate of Differentiation (%)", "description": "Rat white adipocytes contained in the white adipocyte culture kit purchased from HOKUDO were used. As the medium for proliferation and for differentiation-inducing, the medium contained in the white adipocyte culture kit purchased from HOKUDO was used. The cells in the present experiment were cultured in a CO2 incubator (37° C., 95% R.H., 5% CO2).\nImmediately after arrival of the purchased cells, all medium for transportation was discarded and replaced with 5 ml of proliferation medium (/25 cm^2-flask) and the cells were cultured for one day. Then, a cell suspension was prepared with proliferation medium so as to be 83,000 cells/mL, and the cell suspension was plated into a type I 96-well collagen-coated microplate (SUMITOMO BAKELITE CO., ltd.) so as to be 5,000 cells/well (60 μL/well).\nOn the next day, all the proliferation medium was discarded and replaced with 147 μL/well of differentiation-inducing medium. Further, 1) in the group treated with the test compound, 3 μL/well of the solution, in which a test compound (100 μM) was dissolved in DMSO solution and diluted with differentiation-inducing medium by 20 times (final concentration of the test compound: 100 nM, final concentration of DMSO solution: 0.1% (v/v)), were added to the well where the cells were plated. 2) In the control group, 3 μL/well of DMSO solution that was diluted with differentiation-inducing medium by 20 times (final concentration of DMSO: 0.1% (v/v)) were added to the well where the cells were plated. Further, 3) in the blank group, 3 μL/well of DMSO solution that was diluted with differentiation-inducing medium by 20 times (final concentration: 0.1% (v/v)), was added to the blank well.\nAfter culturing for 5 days, all differentiation-inducing medium was discarded and replaced with 60 μL of 10% (v/v) formaldehyde solution (for fixation) in each well and the cells were kept stationary for 20 min at room temperature. After this, the fixative solution was discarded and replaced with 60 μL of 0.2% (v/v) Triton X (Sigma-Aldrich Japan K. K.) solution in each well and kept stationary for 5 min at room temperature. Then all Triton X solution was discarded and replaced with 60 μL of 60% (v/v) isopropanol solution containing dissolved Oil Red O (Sigma-Aldrich Japan K. K.) so as to be 0.3%, which was adipose tissue staining solution, and the well was left stationary for 10 min at room temperature. After the adipose tissue staining solution was discarded, the well was washed twice with 60 JIL of 60% isopropanol solution. Then, 100 μL of the DMSO solution were added to each well and stirred for 5 min at room temperature, The absorbance was measured at 550 nm (ABS550) with a multi-plate reader (LabSystems), and the stained amount with Oil Red O was determined. The measured level at ABS550 in the control group was defined as 100%, while the level at ABS550 in the blank group was defined as 0%. The differentiation rate (%) of the adipocytes treated with the test compound was calculated."}}}
{"smiles": "CCCCCCN(CCCCC)c1ccc(-c2ccc(NC(=O)c3cc([N+](=O)[O-])ccc3Cl)cc2)cc1", "note": "[Example 200, N-[4-[4-(N-Hexyl-N-pentylamino)phenyl]phenyl]-(2-chloro-5-nitrophenyl)carboxamide]", "values": [{"measurement": "activity at 1 µM", "setting": "[1]", "value": 117, "unit": "%"}, {"measurement": "activity at 0.1 µM", "setting": "[2]", "value": 44.1, "unit": "%"}]}
{"smiles": "CCCCCCN(CCCCCC)c1ccc(-c2ccc(NC(=O)c3cc([N+](=O)[O-])ccc3Cl)cc2)cc1", "note": "[Example 201, N-[4-[4-(N,N-Dihexylamino)phenyl]phenyl]-(2-chloro-5-nitrophenyl)carboxamide]", "values": [{"measurement": "activity at 1 µM", "setting": "[1]", "value": 112, "unit": "%"}, {"measurement": "activity at 0.1 µM", "setting": "[1]", "value": 114, "unit": "%"}, {"measurement": "activity at 0.1 µM", "setting": "[2]", "value": 46.9, "unit": "%"}]}
{"smiles": "CCCCCNc1ccc(-c2ccc(NC(=O)c3cc([N+](=O)[O-])ccc3Cl)cc2)cc1", "note": "[Example 202, N-[4-[4-(N-Pentylamino)phenyl]phenyl]-(2-chloro-5-nitrophenyl)carboxamide]", "values": [{"measurement": "activity at 1 µM", "setting": "[1]", "value": 137, "unit": "%"}, {"measurement": "activity at 0.01 µM", "setting": "[1]", "value": 136, "unit": "%"}, {"measurement": "activity at 0.1 µM", "setting": "[1]", "value": 133, "unit": "%"}, {"measurement": "activity at 0.1 µM", "setting": "[2]", "value": 35.4, "unit": "%"}]}
{"smiles": "CCCCCCCCN(C)c1ccc(-c2ccc(NC(=O)c3cc([N+](=O)[O-])ccc3Cl)cc2)cc1", "note": "[Example 226, N-[4-[4-(N-Methyl-N-octylamino)phenyl]phenyl]-(2-chloro-5-nitrophenyl)carboxamide]", "values": [{"measurement": "activity at 0.01 µM", "setting": "[1]", "value": 111, "unit": "%"}, {"measurement": "activity at 0.1 µM", "setting": "[2]", "value": 42, "unit": "%"}]}
{"smiles": "CNC(=S)Nc1ccc(-c2ccc(NC(=O)c3cc([N+](=O)[O-])ccc3Cl)cc2)cc1", "note": "[Example 236, N-[4-[4-(Methylaminothiocarbonylamino)phenyl]phenyl]-(2-chloro-5-nitrophenyl)carboxamide]", "values": [{"measurement": "activity at 0.01 µM", "setting": "[1]", "value": 112, "unit": "%"}, {"measurement": "activity at 0.1 µM", "setting": "[2]", "value": 47.1, "unit": "%"}]}
{"smiles": "O=C(Nc1ccccc1)Nc1ccc(-c2ccc(NC(=O)c3cc([N+](=O)[O-])ccc3Cl)cc2)cc1", "note": "[Example 242, N-[4-[4-(Phenylaminocarbonylamino)phenyl]phenyl]-(2-chloro-5-nitrophenyl)carboxamide]", "values": [{"measurement": "activity at 0.1 µM", "setting": "[1]", "value": 111, "unit": "%"}, {"measurement": "activity at 0.1 µM", "setting": "[2]", "value": 57.6, "unit": "%"}]}
{"smiles": "O=C(Nc1ccc(-c2ccc(NC(=O)c3cc([N+](=O)[O-])ccc3Cl)cc2)cc1)Nc1ccc(F)cc1F", "note": "[Example 249, N-[4-[4-[(2,4-Difluorophenyl)aminocarbonylamino]phenyl]phenyl]-(2-chloro-5-nitrophenyl)carboxamide]", "values": [{"measurement": "activity at 1 µM", "setting": "[1]", "value": 111, "unit": "%"}, {"measurement": "activity at 0.01 µM", "setting": "[1]", "value": 114, "unit": "%"}, {"measurement": "activity at 0.1 µM", "setting": "[1]", "value": 113, "unit": "%"}, {"measurement": "activity at 0.1 µM", "setting": "[2]", "value": 61.9, "unit": "%"}]}
{"smiles": "NC(=O)NCCc1ccc(NC(=O)c2cc([N+](=O)[O-])ccc2Cl)cc1", "note": "[Example 270, N-[4-(2-Aminocarbonylaminoethyl)phenyl]-(2-chloro-5-nitrophenyl)carboxamide]", "values": [{"measurement": "activity at 0.01 µM", "setting": "[1]", "value": 118, "unit": "%"}, {"measurement": "activity at 0.1 µM", "setting": "[2]", "value": 45.9, "unit": "%"}]}
